The test system of series [1] is Kunming mice. To be noted: for Adipocyte density (n/mm^2): day 42, M±SEM.
Method: In this example, 6-week-old Kunming mice (20-30 g) were used as the model. A total of 200 µL of different drugs was injected subcutaneously at multiple sites with multiple needles into the left inguinal region of each mouse. The experimental groups were set as follows. • 1) Negative control group (n = 9): 200 µL of sterile normal saline; • 2) Sodium deoxycholate group (n = 9): 200 µL of 1% sodium deoxycholate sterile normal saline solution; and • 3) Surfactin HXRZ group (n = 9): 200 µL of 1% surfactin HXRZ sterile normal saline solution.
On day 42 of the experiment, the mice were sacrificed and dissected. The left inguinal adipose tissue was harvested, fixed immediately in adipose tissue fixative and then embedded in paraffin. […] The adipocyte density was then calculated.
Statistical analysis was performed by using ulceration as an indicator of severe local inflammation and subcutaneous nodules and induration as indicators of mild local inflammation.
The test system of series [2] is transgenic obese (ob/ob) mice. As to conditions: for degradation of adipose tissue (H-E sections, FIG. 6): Example 5, 200 µL, one mouse.
Method: 6-week-old transgenic obese (ob/ob) mice were used as the animal model. Different drugs were injected into the adipose pads of the left buttock. The mice were totally divided into three groups with 7-10 mice per group, as specified below. • 1) Negative control group: injected with 200 µL of sterile normal saline; • 2) 1% sodium deoxycholate group: injected with 200 µL of sterile normal saline solution containing 1% sodium deoxycholate; • 3) 0.1% surfactin HXRZ group: injected with 200 µL of sterile normal saline solution containing 0.1% surfactin HXRZ.
The day of the first administration was defined as Day 1 of the experiment. Additional administrations were performed on Day 3 and Day 5, respectively. The general condition and administration sites of the mice were observed regularly throughout the experiment. On Day 21 of the experiment, the mice were sacrificed and dissected. The adipose tissue of the left buttock was isolated, fixed immediately in adipose tissue fixative, and then embedded in paraffin. The adipose tissue was stained by hematoxylin and eosin staining for pathological examination, followed by observation and analysis under an optical microscope.
Specifically, 6-week-old transgenic obese (ob/ob) mice were used as the animal model, with one mouse per group. 200 µL each of 0.5% and 1% surfactin HXRZ normal saline solutions (test samples) were injected into the adipose pads of the left buttock, respectively. The day of the first administration was defined as Day 1 of the experiment. Additional administrations were performed on Day 3 and Day 5, respectively. The general condition and administration sites of the mice were observed regularly throughout the experiment. On Day 21 of the experiment, the mice were sacrificed and dissected. The adipose tissue of the left buttock of the mice was isolated, fixed immediately in adipose tissue fixative, and then embedded in paraffin. The adipose tissue was stained by hematoxylin and eosin staining for pathological examination, followed by observation and analysis under an optical microscope.
Series [3] can be described thus: Surface tension at serial dilutions (CMC value determination), automatic interfacial tensiometer. The class given is physicochemical. The protocol: A 0.1% surfactin HXRZ solution and a sodium deoxycholate solution were separately prepared using purified water, followed by serial dilution to obtain different gradient concentrations. The surface tensions at different concentrations were determined respectively via a JZ-200A automatic interfacial tensiometer. Table 1 CMC value determination results

The subject of series [4] is Mouse adipocyte cell line 3T3-F442A. Briefly: In vitro cytotoxicity test: relative growth rate of cells by CCK-8. Type of series: cell-based. To be noted: for relative growth rate: X±SD.
Method: Mouse adipocyte cell line 3T3-F442A in the logarithmic growth phase was seeded into a 96-well plate at a density of 1×10^5 cells/mL, with 100 µL per well. The culture medium consisted of a basal culture medium supplemented with 10% fetal bovine serum. The seeded cells were incubated conventionally in a carbon dioxide incubator at 37°C and 5% CO2 for 24 h.
The solution was freshly prepared before use.
After routine incubation for 24 h, the old culture medium was discarded, and then 100 µL of sample solution was added to replace it in the experimental group. An equal volume of serum-free culture medium was added to the normal control group. Each concentration was set up with at least three replicate wells.
After another incubation for 24 h, the relative growth rate of cells was detected by CCK-8. The culture medium was discarded, 100 µL of CCK-8 diluted 10-fold with the serum-free medium was added to each well. The plate was incubated in a cell incubator for another 2 h. The absorbance was determined using a microplate reader at a wavelength of 450 nm. The relative growth rate (RGR) is a ratio of the absorbance of the experimental group to the absorbance of the normal control group.
3T3-F442A mouse adipocytes in the logarithmic growth phase were seeded into a 96-well plate at a density of 1 × 10^5 cells/mL, with 100 µL per well. After incubation for 24 h, the culture medium was replaced with 100 µL of culture medium containing different concentrations of samples. An equal volume of serum-free culture medium was added to the blank control group, and the incubation was continued for another 24 h. The relative growth rate of cells was determined by CCK-8. The blank control was set as 100%, the relative growth rate and half inhibitory concentration of each group were calculated.
The test system of series [5] is Kunming mice.
Method: 6-week-old Kunming mice (weighing 20-30 g) were used as the model. A total of 200 µL of different drugs was injected subcutaneously at multiple sites with multiple needles into the left inguinal region of each mouse. The experimental groups were set as follows: • 1) Negative control group (n = 3): 200 µL of sterile normal saline; • 2) 1% sodium deoxycholate group (n = 3): 200 µL of 1% sodium deoxycholate normal saline solution; • 3) 2% sodium deoxycholate group (n = 3): 200 µL of 2% sodium deoxycholate normal saline solution; • 4) 0.5% surfactin HXRZ group (n = 3): 200 µL of 0.5% surfactin HXRZ normal saline solution; • 5) 1% surfactin HXRZ group (n = 3): 200 µL of 1% surfactin HXRZ normal saline solution; • 6) 2% surfactin HXRZ group (n = 3): 200 µL of 2% surfactin HXRZ normal saline solution;
Administration was performed once every 7 days. Ulceration at the administration site of each mouse was observed throughout the administration period. On day 21 of the experiment, all mice were sacrificed and dissected.
In another series the test system is Female Kunming mice. As to the kind of experiment: Animal experiment comparing surfactin-C14 and surfactin-C15: subcutaneous injection in right inguinal region, four administrations. As to conditions: for Mean adipocyte area (x±SEM, mm^2) / Mean adipocyte density (x±SEM, n/mm^2): H-E sections.
Where [6] appears, read: Example 8, 0.005 mg/mL, 24 h, 3T3-F442A.
[7] abbreviates: Example 8, 0.01 mg/mL, 24 h, 3T3-F442A.
Where [8] appears, read: Example 8, 0.02 mg/mL, 24 h, 3T3-F442A.
[9] abbreviates: Example 8, 0.04 mg/mL, 24 h, 3T3-F442A.
[10] abbreviates: Example 8, 0.08 mg/mL, 24 h, 3T3-F442A.
The mark [11] stands for this setting: 1 mg/mL (low-dose), four administrations.
Setting [12] is: 5 mg/mL (medium-dose), four administrations.
Setting [13] is: 10 mg/mL, four administrations once every 14 days, right inguinal.

Like-named read-outs stand apart in the source and are kept apart here.

Method for Female Kunming mice: Female Kunming mice (aged 7-8 weeks, weighing 25.55-33.76 g) were taken, ranked in ascending order of body weight, and divided into groups of 7-8 mice using a Latin method. The tails of mice in each cage were marked and distinguished with an oil-based permanent marker.
Based on the injection dose of the positive drug reported in the literature, the subcutaneous injection dose for this test was determined to be 10 mg/mL at a volume of 200 µL. Subcutaneous injection was performed using a four-needle mesotherapy tip (34 G, 1.5 mm long, inner diameter 0.6 mm). Administration was performed sequentially from top to bottom along the right inguinal region. Administration was performed once every 14 days for a total of four administrations.
During the administration period, food intake, water consumption and general activity of all experimental animals in each group were observed daily under identical feeding conditions and housing environments. Daily observation was performed on each mouse to check for ulceration, induration and other lesions at the administration site. 14 days after the second administration, two mice from each group were sacrificed and dissected. All the remaining mice were sacrificed and dissected 14 days after the fourth administration.
In this example, changes in adipose tissue at the administration sites of experimental mice were statistically analyzed. Specifically, the adipose tissue was excised from the inguinal region on the inoculated side (right side), weighed and recorded. The adipose tissue-to-body weight percentage of the inoculated side for each mouse was then calculated using the formula: [(weight of adipose tissue on the inoculated side/body weight of the mouse) × 100%].
Further statistical analysis was performed on adipocyte density and adipocyte area. The adipose tissue from the inoculated side was immersed in adipose tissue fixative and sent for hematoxylin-eosin (H-E) staining. After imaging was completed, all measurements were standardized in millimeters. The area of adipose tissue in each image was measured, and the number of adipocytes in each image was counted. The area of a single adipocyte was calculated as: adipocyte area = total adipose tissue area/adipocyte number; adipocyte density = adipocyte number/total adipose tissue area.

Take surfactin [Surfactin HXRZ]: the “Adipose tissue weight” value in the series with Kunming mice [1] (1 %, 200 µL s.c. left inguinal, once every 14 days, day 42, n = 9) was determined as 0.2007 ± 0.0365 g. For the same substance, the “Adipocyte density (n/mm^2)” value is recorded as 676.94±51.326 n/mm^2 with Kunming mice [1] (1 %, 200 µL s.c.) and 676.94±51.326 n/mm^2 in the series on Kunming mice [1] (1 %, 200 µL s.c., listed as surfactin HXRZ). For the same substance, in the series with Kunming mice [1] (1 %, 200 µL s.c., day 42, treated-side inguinal adipose weight/body weight × 100%), the “Fat index (%)” value worked out at 0.50±0.10 %. This substance also returned a Ulceration in the series on Kunming mice [1] (mouse, in vivo) of 0. Also, the “ulceration at the administration sites over the administration cycle” value with Kunming mice [1] (mouse, in vivo) is on record as “no ulceration occurred at the administration sites”. Moreover, the “degradation of adipose tissue at the administration sites (H-E sections, FIG. 5)” value in series [2] (Example 4, 0.1 %, 200 µL in normal saline, left buttock, Days 1, 3, 5, Day 21) is reported as “induced the degradation of adipose tissue at the administration sites”. Besides, the “degradation of adipose tissue (H-E sections, FIG. 6)” value in series [2] (0.5 %, left buttock, Days 1, 3, 5, Day 21) is listed as “induced the degradation of adipose tissue in mice”; in series [2] (1 %, left buttock, Days 1, 3, 5, Day 21), “induced the degradation of adipose tissue in mice”. Besides, in series [2] (mouse, in vivo), the “induration / ulceration at the administration sites” value was “No such phenomena were observed”. The Surface tension value is 39.08 mN/m in series [3] (solution concentration 0.00078125 % in purified water); 38.38 mN/m in series [3] (solution concentration 0.0015625 % in purified water); 37.64 mN/m in series [3] (solution concentration 0.003125 % in purified water); 37.16 mN/m in series [3] (solution concentration 0.00625 % in purified water); 36.28 mN/m in series [3] (solution concentration 0.0125 % in purified water); 35.64 mN/m in series [3] (solution concentration 0.025 % in purified water). The Surface tension value in series [3] (solution concentration 0.05 % in purified water) is listed as 33.43 mN/m; in series [3] (solution concentration 0.05 % in purified water, listed as surfactin HXRZ) it was 33 mN/m; in series [3] (solution concentration 0.1 % in purified water), 33.69 mN/m. The “treatment time at which adipocytes were completely lysed” value in series [4] (0.08 mg/mL) turned out to be 24 h. Further, in series [4] (0.08 mg/mL, 24 h), the “cell morphology of adipocytes (inverted microscope, FIG. 4)” value is on record as “nearly all cells died”. Further, the “half maximal inhibitory concentrations IC50” value in series [4] (3T3-F442A adipocytes, 24 h, calculated from Table 2 curves) is given as 0.0271 mg/mL. The “Relative growth rate (%)” value in series [4] (Example 2, 0.005 mg/mL, 24 h, 3T3-F442A) stood at 101.2±15.71%; in series [4] (Example 2, 0.01 mg/mL, 24 h, 3T3-F442A), 90.23±4.30%; in series [4] (Example 2, 0.02 mg/mL, 24 h, 3T3-F442A), 67.56±3.81%; in series [4] (Example 2, 0.04 mg/mL, 24 h, 3T3-F442A), 19.34±1.43%; in series [4] (Example 2, 0.08 mg/mL, 24 h, 3T3-F442A), 10.74±0.51%; in series [4] (Example 3, 0.02 mg/mL, 0.5 h) it was 75.21±4.86%. Further, the “Relative growth rate (%)” value in series [4] (Example 3, 0.02 mg/mL, 4 h) is 61.07±5.11%; in series [4] (Example 3, 0.02 mg/mL, 24 h), 67.56±0.09%; in series [4] (Example 3, 0.04 mg/mL, 0.5 h), 59.48±3.47%; in series [4] (Example 3, 0.04 mg/mL, 4 h), 37.95±1.99%; in series [4] (Example 3, 0.04 mg/mL, 24 h), 19.34±0.03%; in series [4] (Example 3, 0.08 mg/mL, 0.5 h) it was 32.81±6.73%. Also, the “Relative growth rate (%)” value in series [4] (Example 3, 0.08 mg/mL, 4 h) worked out at 24.38±3.37%; in series [4] (Example 3, 0.08 mg/mL, 24 h) it was 10.74±0.01%. The relative growth rate in series [4] (setting [6]) is given as 103.67±1.59 b, c %; in series [4] (setting [7]) it was 67.49±5.46 a, b, c %; in series [4] (setting [8]), 20.76±5.32 a, b, c %; in series [4] (setting [9]) it was 9.99±0.38 b %; in series [4] (setting [10]) it was 9.01±0.06 b, c %. Further, in the series on Kunming mice [5] (0.5 %, treated side vs untreated side), the “degradation of inguinal adipose tissue at the administration sites (dissection, FIG. 9)” value is listed as “a certain degree of degradation”. Further, the “degree of ulceration at the administration sites compared with sodium deoxycholate” value in the series on Kunming mice [5] (mouse, in vivo) is “milder than that in the 2% sodium deoxycholate group”. In addition, the “degree of ulceration compared with sodium deoxycholate” value in the series with Kunming mice [5] (mouse, in vivo) is “milder than that in the 1% sodium deoxycholate group”. For the same substance, the healing of ulceration result with Kunming mice [5] (mouse, in vivo) is “healed completely”. Besides, the healing of ulcers result in the series with Kunming mice [5] (mouse, in vivo) was “failed to heal”. The “ulceration at the injection sites” value in the series with Kunming mice [5] (mouse, in vivo, sc) is recorded as “no ulceration occurred at the injection sites”.

For surfactin-C13 [HXRZ-A], the relative growth rate in series [4] (setting [6]) is given as 97.66±3.27 c %; in series [4] (setting [7]), 97.00±3.13 b, c %; in series [4] (setting [8]), 34.74±3.25 #, b, c %; in series [4] (setting [9]), 9.83±0.36 %; in series [4] (setting [10]), 9.27±0.24 b, c %.

In the case of surfactin-C14 [HXRZ-B], the “Mean adipocyte area (x±SEM, mm^2)” value in the series with Female Kunming mice (1 mg/mL (low-dose)) is on record as 0.00284±0.000267 mm^2; with Female Kunming mice (5 mg/mL (medium-dose)) it was 0.003554±0.00047 mm^2; with Female Kunming mice (10 mg/mL, four administrations), 0.003177±0.000284 mm^2. Moreover, the “Mean adipocyte density (x±SEM, n/mm^2)” value with Female Kunming mice (1 mg/mL (low-dose)) worked out at 418.7156±85.9688 n/mm^2; in the series with Female Kunming mice (5 mg/mL (medium-dose)), 313.2046±85.5687 n/mm^2; with Female Kunming mice (10 mg/mL, four administrations), 340.3195±31.7463 n/mm^2. For the same substance, the “Mean wet adipose tissue weight (x±SEM, unit: g)” value with Female Kunming mice (setting [11]) turned out to be 0.326 ± 0.106 g; with Female Kunming mice (setting [12]), 0.225 ± 0.039 g; with Female Kunming mice (setting [13]) it was 0.232 ± 0.032 g. Besides, the “Mean wet adipose tissue weight/body weight percentage (x±SEM, %)” value with Female Kunming mice (setting [11]) is 0.76±0.21%; in the series with Female Kunming mice (setting [12]) it was 0.56±0.08 %; in the series on Female Kunming mice (10 mg/mL, four administrations), 0.58±0.07 %. The relative growth rate in series [4] (setting [6]) is given as 89.75±7.04 #, c %; in series [4] (setting [7]) it was 46.22±4.26 #, a %; in series [4] (setting [8]), 14.74±0.48 #, a %; in series [4] (setting [9]), 9.02±0.37 #, c %; in series [4] (setting [10]), 8.11±0.24 #, a, c %.

Take surfactin-C15 [HXRZ-C]: the “Mean adipocyte area (x±SEM, mm^2)” value in the series on Female Kunming mice (1 mg/mL (low-dose)) came to 0.003222±0.000161 mm^2; with Female Kunming mice (5 mg/mL (medium-dose)), 0.003297±0.000274 mm^2; in the series on Female Kunming mice (10 mg/mL, four administrations), 0.004632±0.000253 mm^2. Besides, the “Mean adipocyte density (x±SEM, n/mm^2)” value stood at 355.3684±57.4571 n/mm^2 in the series on Female Kunming mice (1 mg/mL (low-dose)); 328.9026±63.1322 n/mm^2 with Female Kunming mice (5 mg/mL (medium-dose)); 251.3400±31.0087 n/mm^2 in the series on Female Kunming mice (10 mg/mL, four administrations). Besides, the “Mean wet adipose tissue weight (x±SEM, unit: g)” value in the series on Female Kunming mice (setting [11]) amounted to 0.198 ± 0.030 g; with Female Kunming mice (setting [12]), 0.209 ± 0.021 g; in the series with Female Kunming mice (setting [13]), 0.188 ± 0.011 g. The “Mean wet adipose tissue weight/body weight percentage (x±SEM, %)” value is listed as 0.51±0.08 % in the series with Female Kunming mice (setting [11]); 0.53±0.05 % with Female Kunming mice (setting [12]); 0.48±0.02 % in the series with Female Kunming mice (10 mg/mL, four administrations). Besides, the relative growth rate is on record as 76.06±3.24 #, a, b % in series [4] (setting [6]); 43.53±3.35 #, a % in series [4] (setting [7]); 17.61±1.76 #, a % in series [4] (setting [8]); 10.29±0.38 b % in series [4] (setting [9]); 10.31±0.48 *,#,a,b % in series [4] (setting [10]). In addition, the “IC50 against adipocytes relative to HXRZ-A” value in series [4] (Example 8, 3T3-F442A, 24 h) is recorded as “approximately half that of HXRZ-A”.
